IC50 data for 35 molecules are collected here from patent US11370774B2, “Substituted benzofuran, benzopyrrole, benzothiophene, and structurally related complement inhibitors” (BioCryst Pharmaceuticals, Inc., priority 2018, dated 2022).

The term IC50 denotes the concentration that gives 50% inhibition.

Factor D, sequence (P00746 26-253): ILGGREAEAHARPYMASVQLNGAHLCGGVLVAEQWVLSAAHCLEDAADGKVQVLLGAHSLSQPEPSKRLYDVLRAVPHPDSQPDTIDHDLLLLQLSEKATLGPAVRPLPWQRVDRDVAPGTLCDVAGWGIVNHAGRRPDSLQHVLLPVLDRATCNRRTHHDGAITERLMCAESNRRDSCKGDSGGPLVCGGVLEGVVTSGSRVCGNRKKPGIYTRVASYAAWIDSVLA

This test has as its target Factor D (Homo sapiens (Human), UniProt P00746). As to the kind of experiment: Factor D esterolytic assay (Z-Lys-SBzl substrate, DTNB, 405 nm). The test is classed as biochemical. Conditions: Z-Lys-SBzl 1.29 mM, pH 7.5, 10% DMSO, tested a minimum of three times, read-out: Measured Ki (IC50) Value for Compounds: IC50. In short, it runs like this:
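Thioester hydrolysis (Z-Lys-SBzl, 1.29 mM) by human Factor D ([…]) detected through DTNB color at 405 nm over 600 sec, minus 690 nm background. Buffer: 100 mM HEPES pH 7.5, 500 mM NaCl, 10% DMSO; optional room-temperature preincubation before substrate. IC50 derived from percent rate inhibition; at least three runs.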
For `NCc1cccc(-c2cc(COc3ccccc3CC(=O)O)nc3ccoc23)c1` [Compound 119e, 2-(2-((7-(3-(aminomethyl)phenyl)furo[3,2-b]pyridin-5-yl)methoxy)phenyl)acetic acid], the IC50 is below 1000 nM.

As to `COCc1cc2cc(COc3ccccc3CC(=O)O)cc(-c3ccnc(CN)c3F)c2o1` [Compound 120c, 2-(2-((7-(2-(aminomethyl)-3-fluoropyridin-4-yl)-2-(methoxymethyl)benzofuran-5-yl)methoxy)phenyl)acetic acid], the IC50 is below 1000 nM.

Regarding `CC(C)n1ccc2c(-c3ccnc(CN)c3F)cc(COc3ccccc3CC(=O)O)cc21` [Compound 121b, 2-(2-((4-(2-(aminomethyl)-3-fluoropyridin-4-yl)-1-isopropyl-1H-indol-6-yl)methoxy)phenyl)acetic acid], the IC50 is below 1000 nM.

`NCc1cccc(-c2cc(COc3ccccc3CC(=O)O)cc3occc23)c1F` [Compound 122b, 2-(2-((4-(3-(aminomethyl)-2-fluorophenyl)benzofuran-6-yl)methoxy)phenyl)acetic acid]: the IC50 is below 1000 nM.

Regarding `NCc1cc(-c2cc(COc3ccccc3CC(=O)O)cc3occc23)ccn1` [Compound 123d, 2-(2-((4-(2-(aminomethyl)pyridin-4-yl)benzofuran-6-yl)methoxy)phenyl)acetic acid], the half-inhibitory concentration (IC50) is below 1000 nM.

Consider `NCc1cccc(-c2cc(COc3ccccc3CC(=O)O)cc3[nH]ncc23)c1F` [Compound 124g, 2-(2-((4-(3-(aminomethyl)-2-fluorophenyl)-1H-indazol-6-yl)methoxy)phenyl)acetic acid], for which the IC50 is below 1000 nM.

In the case of `NCc1cccc(-c2cc(C(=O)Nc3ccccc3CC(=O)O)cn3ccnc23)c1` [Compound 125c, 2-(2-(8-(3-(aminomethyl)phenyl)imidazo[1,2-a]pyridine-6-carboxamido)phenyl)acetic acid], the IC50 is above 10000 nM.

For `NCc1cccc(-c2cc(COc3ccccc3CC(=O)O)cc3c2cnn3CC2CC2)c1` [Compound 126h, 2-(2-((4-(3-(aminomethyl)phenyl)-1-(cyclopropylmethyl)-1H-indazol-6-yl)methoxy)phenyl)acetic acid], the IC50 is below 1000 nM.

Consider `NCc1cccc(-c2cc(COc3ccccc3CC(=O)O)cc3c2cnn3CC2CC2)c1F` [Compound 127b, 2-(2-((4-(3-(aminomethyl)-2-fluorophenyl)-1-(cyclopropylmethyl)-1H-indazol-6-yl)methoxy)phenyl)acetic acid], for which the IC50 is below 1000 nM.

On to `Cn1ncc2c(-c3cccc(CN)c3F)cc(COc3ccccc3CC(=O)O)cc21` [Compound 128g, 2-(2-((4-(3-(aminomethyl)-2-fluorophenyl)-1-methyl-1H-indazol-6-yl)methoxy)phenyl)acetic acid], for which the IC50 is below 1000 nM.

`Cn1cc2c(-c3cccc(CN)c3F)cc(COc3ccccc3CC(=O)O)cc2n1` [Compound 129e, 2-(2-((4-(3-(aminomethyl)-2-fluorophenyl)-2-methyl-2H-indazol-6-yl)methoxy)phenyl)acetic acid]: the IC50 was below 1000 nM.

As to `NCc1cccc(-c2cc(COc3ccc(C4CC4)cc3CC(=O)O)cc3ccoc23)c1` [Compound 130g, 2-(2-((7-(3-(aminomethyl)phenyl)benzofuran-5-yl)methoxy)-5-cyclopropylphenyl)acetic acid], the IC50 was below 1000 nM.

Consider `Cn1ncc2c(-c3cccc(CN)c3)cc(COc3ccccc3CC(=O)O)cc21` [Compound 131b, 2-(2-((4-(3-(aminomethyl)phenyl)-1-methyl-1H-indazol-6-yl)methoxy)phenyl)acetic acid], for which the IC50 was below 1000 nM.

Turning to `COCc1cc2cc(COc3ccccc3CC(=O)O)cc(-c3ccnc(CN)c3)c2o1` [Compound 132b, 2-(2-((7-(2-(aminomethyl)pyridin-4-yl)-2-(methoxymethyl)benzofuran-5-yl)methoxy)phenyl)acetic acid], the IC50 is below 1000 nM.

Regarding `Cn1ccc2c(-c3ccnc(CN)c3)cc(COc3ccccc3CC(=O)O)cc21` [Compound 133c, 2-(2-((4-(2-(aminomethyl)pyridin-4-yl)-1-methyl-1H-indol-6-yl)methoxy)phenyl)acetic acid], the IC50 was below 1000 nM.

Consider `NCc1cccc(-c2cc(COc3ccccc3CC(=O)O)nc3ccoc23)c1F` [Compound 134b, 2-(2-((7-(3-(aminomethyl)-2-fluorophenyl)furo[3,2-b]pyridin-5-yl)methoxy)phenyl)acetic acid], for which the IC50 was below 1000 nM.

As to `Cn1ncc2c(-c3ccnc(CN)c3)cc(COc3ccccc3CC(=O)O)cc21` [Compound 135c, 2-(2-((4-(2-(aminomethyl)pyridin-4-yl)-1-methyl-1H-indazol-6-yl)methoxy)phenyl)acetic acid], the IC50 is below 1000 nM.

With `NCc1cccc(-c2cc(COc3ccccc3CC(=O)O)c(F)c3ccoc23)c1` [Compound 136e, 2-(2-((7-(3-(aminomethyl)phenyl)-4-fluorobenzofuran-5-yl)methoxy)phenyl)acetic acid], the IC50 was below 1000 nM.

`NCc1cccc(-c2cc(COc3ccccc3CC(=O)O)c(F)c3ccoc23)c1F` [Compound 137b, 2-(2-((7-(3-(aminomethyl)-2-fluorophenyl)-4-fluorobenzofuran-5-yl)methoxy)phenyl)acetic acid]: the IC50 was below 1000 nM.

Take `CNCc1cc2cc(COc3ccccc3CC(=O)O)cc(-c3cccc(CN)c3)c2o1` [Compound 138f, 2-(2-((7-(3-(aminomethyl)phenyl)-2-((methylamino)methyl)benzofuran-5-yl)methoxy)phenyl)acetic acid]: the IC50 was below 1000 nM.

With `NCc1cccc(-c2cc(COc3ccccc3CC(=O)O)cc3cc(CN4CCOCC4)oc23)c1` [Compound 139c, 2-(2-((7-(3-(aminomethyl)phenyl)-2-(morpholinomethyl)benzofuran-5-yl)methoxy)phenyl)acetic acid], the IC50 was below 1000 nM.

For the molecule `NCc1cccc(-c2cc(COc3ccccc3CC(=O)O)cc3cc(Cn4ccnc4)oc23)c1` [Compound 140c, 2-(2-((2-((1H-imidazol-1-yl)methyl)-7-(3-(aminomethyl)phenyl)benzofuran-5-yl)methoxy)phenyl)acetic acid], the IC50 was below 1000 nM.

`CN(C)Cc1cc2cc(COc3ccccc3CC(=O)O)cc(-c3cccc(CN)c3)c2o1` [Compound 141c, 2-(2-((7-(3-(aminomethyl)phenyl)-2-((dimethylamino)methyl)benzofuran-5-yl)methoxy)phenyl)acetic acid]: the IC50 was below 1000 nM.

Regarding `NCc1cccc(-c2nc(C(=O)Nc3cscc3CC(=O)O)c3cccn3n2)c1F` [Compound 142d, 2-(4-(2-(3-(aminomethyl)-2-fluorophenyl)pyrrolo[2,1-f][1,2,4]triazine-4-carboxamido)thiophen-3-yl)acetic acid], the IC50 was below 1000 nM.

For `NCc1cccc(-c2nc(C(=O)Nc3ccoc3CC(=O)O)c3cccn3n2)c1F` [Compound 143g, 2-(3-(2-(3-(aminomethyl)-2-fluorophenyl)pyrrolo[2,1-f][1,2,4]triazine-4-carboxamido)furan-2-yl)acetic acid], the IC50 was above 10000 nM.

As to `NCc1cccc(-c2nc(C(=O)Nc3ccsc3CC(=O)O)c3cccn3n2)c1F` [Compound 144d, 2-(3-(2-(3-(aminomethyl)-2-fluorophenyl)pyrrolo[2,1-f][1,2,4]triazine-4-carboxamido)thiophen-2-yl)acetic acid], the IC50 is below 1000 nM.

For `NCc1cccc(-c2nc(C(=O)Nc3cscc3CC(=O)O)cc3ccoc23)c1` [Compound 145c, 2-(4-(7-(3-(aminomethyl)phenyl)furo[2,3-c]pyridine-5-carboxamido)thiophen-3-yl)acetic acid], the IC50 was below 1000 nM.

Consider `Cc1ccc(S(=O)(=O)n2ccc3cc(COc4ccccc4CC(=O)O)cc(-c4cccc(CN)c4)c32)cc1` [Compound 146g, 2-(2-((7-(3-(aminomethyl)phenyl)-1-tosyl-1H-indol-5-yl)methoxy)phenyl)acetic acid], for which the IC50 fell in the range of 1000 to 10000 nM.

`NCc1cccc(-c2nc(C(=O)Nc3ccsc3CC(=O)O)cc3ccoc23)c1` [Compound 147c, 2-(3-(7-(3-(aminomethyl)phenyl)furo[2,3-c]pyridine-5-carboxamido)thiophen-2-yl)acetic acid]: the IC50 is below 1000 nM.

Turning to `NCc1cccc(-c2cc(COc3ccccc3CC(=O)O)cc3c2ccn3CC2CC2)c1` [Compound 148e, 2-(2-((4-(3-(aminomethyl)phenyl)-1-(cyclopropylmethyl)-1H-indol-6-yl)methoxy)phenyl)acetic acid], the IC50 was below 1000 nM.

As for `NCc1cccc(-c2cc(COc3ccccc3CC(=O)O)cc3c2ccn3CC2CC2)c1F` [Compound 149b, 2-(2-((4-(3-(aminomethyl)-2-fluorophenyl)-1-(cyclopropylmethyl)-1H-indol-6-yl)methoxy)phenyl)acetic acid], the IC50 was below 1000 nM.

As to `Cn1ccc2c(-c3ccnc(CN)c3F)cc(COc3ccccc3CC(=O)O)cc21` [Compound 150b, 2-(2-((4-(2-(aminomethyl)-3-fluoropyridin-4-yl)-1-methyl-1H-indol-6-yl)methoxy)phenyl)acetic acid], the IC50 was below 1000 nM.

With `Cn1ncc2c(-c3ccnc(CN)c3F)cc(COc3ccccc3CC(=O)O)cc21` [Compound 151c, 2-(2-((4-(2-(aminomethyl)-3-fluoropyridin-4-yl)-1-methyl-1H-indazol-6-yl)methoxy)phenyl)acetic acid], the IC50 is below 1000 nM.

In the case of `NCc1cccc(-c2cc(CNc3ccccc3CC(=O)O)cc3ccoc23)c1F` [Compound 152d, lithium 2-(2-(((7-(3-(aminomethyl)-2-fluorophenyl)benzofuran-5-yl)methyl)amino)phenyl)acetate], the IC50 was below 1000 nM.

In the case of `NCc1cccc(-c2cc(CNc3ccccc3CC(=O)O)cc3ccoc23)c1` [Compound 153b, lithium 2-(2-(((7-(3-(aminomethyl)phenyl)benzofuran-5-yl)methyl)amino)phenyl)acetate], the IC50 was below 1000 nM.
